Legend:
[1] = system: Hodgkin Lymphoma cells, HD-MYZ; assay: Hodgkin's lymphoma xenograft model, MK-0557 and 200464 (Example 16); format: in vivo
Text: Hodgkin lymphoma cells, HD-MYZ, were implanted in NOD-SCID mice, female, 4-6 weeks from Jackson's Laboratory (Maine). The treatments were started day 6 after tumor implantation. The mice were divided to six groups, 4-5 mice from each group. The treatment started with a tumor volume of about 70 mm3 after tumor implantation.

[2] = system: Hodgkin Lymphoma cells, HD-MYZ; assay: Hodgkin lymphoma xenograft model, MK0557 vs AVASTIN (Example 14); format: in vivo, NOD-SCID mice; conditions: for inhibition rate (tumor volume) / inhibition rate (tumor weight): versus vehicle
Text: Hodgkin lymphoma cells, HD-MYZ, were implanted in NOD-SCID mice. […] Tumor volume and tumor growth were monitored during the experiment.

[3] = system: Breast cancer cells, MDA MB 468; assay: breast cancer xenograft model, MK0557 and 5-FU (Example 15); format: in vivo, CB17-SCID; conditions: MK0557 alone, 30 mg/kg ip. 3/week
Protocol: Breast cancer cells, MDA MB 468, were injected into CB17-SCID. The treatments were started day 14 after tumor implantation. […] Tumor volume and tumor growth were monitored during the experiment.

[4] = cited from earlier work
[5] = system: Breast cancer cells, MDA MB 468; assay: breast cancer xenograft model (Example 11); format: in vivo, SCID mice; conditions: 30 mg/kg i.p. 3/week, approximately 4 weeks
Protocol: Breast cancer cells, MDA MB 468 (12 million), were injected subcutaneously (s.c.) on the neck of SCID mice (CB17, female, 4-6 weeks old) (Charles River, Wilmington, Mass.). The mice were divided into four groups, 5 mice for each group. The treatments were started when the tumor volume reached about 100 mm^3, day 22 after tumor implantation. […] The tumor sizes were monitored every 3 or 4 days. […] (FIG. 12)

[6] = system: Ovarian cancer cells, Caov-3; assay: ovarian cancer xenograft model (Example 10); format: in vivo, CB17-SCID mice
Protocol: Ovarian cancer cells, Caov-3 (2 Million), were implanted in CB17-SCID mice. The mice were treated with MK0557 at 30 mg/kg or vehicle (15% of 0.5% of CMC (carboxymethylcellulose, low viscosity) and 85% of 0.2% Tween 80 in water) intraperitoneally daily for the first week followed by once every two days injections. Both the tumor growth and body weights were monitored for the duration of the experiment.

[7] = system: Rat glioma cells; assay: brain cancer xenograft model (Example 7); format: in vivo, CB17-SCID mice
Protocol: (§1) Rat glioma cells (2×10^6) were implanted in CB17-SCID mice. The mice were treated with MK0557 at 30 mg/kg, or vehicle (15% of 0.5%) CMC (carboxymethylcelulose) (low viscosity) and 85% of 0.2% Tween80 in water) intraperitoneally daily for the first week followed by once every two days injections.

[8] = system: Hodgkin Lymphoma cells, HD-MYZ; assay: Hodgkin lymphoma xenograft model (Example 12); format: in vivo, NOD-SCID mice; conditions: 30 mg/kg i.p. 3/week, approximately 2 weeks
Text: Hodgkin lymphoma cells, HD-MYZ (1 million), were implanted s.c. on the right flank of NOD-SCID mice (Cat#001303, female, 4-6 weeks from Jackson laboratories, Bar Harbor, Me.). The mice were divided into four groups, 5 mice for each group. […] The tumor growth was monitored during the experiment. […] (FIG. 13)

[9] = system: Ovarian cancer cells SKOV-3; assay: ovarian cancer xenograft model (Example 13); format: in vivo, SCID mice; conditions: 30 mg/kg i.p. 3/week
Text: Ovarian cancer cells SKOV-3 (5 millions) were implanted s.c. on the right flank of SCID mice (CB17, female, 4-6 weeks) (Charles River, Wilmington, Mass.). The mice were divided into four groups, 5 mice for each group. The treatments were started when the tumor volume reached at around 60 mm3, day 8 after tumor implantation. […] The tumor growth was monitored for the duration of the experiment. […] (FIG. 14)

[10] = target: T1, mouse NPY6R (Mus musculus, UniProt Q61212); conditions: at a concentration of 10 μM; cited from earlier work
T1 sequence (Q61212 1-371): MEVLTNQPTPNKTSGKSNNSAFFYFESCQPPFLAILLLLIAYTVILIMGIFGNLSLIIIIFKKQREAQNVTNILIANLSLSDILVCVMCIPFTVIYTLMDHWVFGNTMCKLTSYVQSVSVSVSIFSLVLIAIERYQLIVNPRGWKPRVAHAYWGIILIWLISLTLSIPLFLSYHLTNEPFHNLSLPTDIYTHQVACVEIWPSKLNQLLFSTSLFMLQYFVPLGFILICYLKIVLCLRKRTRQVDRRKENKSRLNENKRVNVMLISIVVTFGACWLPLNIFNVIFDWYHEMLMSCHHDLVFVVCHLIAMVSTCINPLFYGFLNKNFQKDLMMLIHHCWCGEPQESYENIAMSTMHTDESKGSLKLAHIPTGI

[11] = system: Lung cancer cells, H358; assay: lung cancer xenograft model (Example 9); format: in vivo, CB17-SCID mice
Protocol: as §1, with “Lung cancer cells, H358, (1×10^6)” for “Rat glioma cells (2×10^6)”, “Ten days post-implantation, the” for “The”, “mg/kg” for “mg/kg,”

[12] = group 4: MK 0557 30 mg/kg i.p. 3 times for each week, versus vehicle
[13] = 15 mg/kg i.p. every day×3 weeks
[14] = 60 mg/kg p.o. every day×3 weeks
[15] = 30 mg/kg intraperitoneally daily first week then once every two days

## O=C1O[C@]2(CC[C@H](C(=O)Nc3ccn(-c4ccccc4F)n3)CC2)c2cnccc21 [MK-0557, trans-N-[1-(2-fluorophenyl)-3-pyrazolyl]-3-oxospiro[6 azaisobenzofuran-1(3H), 1′-cyclohexane]-4′carboxamide]
[1]; doses of Example 16, except group 6
  tolerability of the doses by the mice: well tolerated
[1]; group 4: MK 0557 30 mg/kg i.p. 3 times for each week
  Mean Tumor Volume: 435.54+/−72.17 mm^3
[1]; [12]
  inhibition rate (tumor volume): 70.94%
  inhibition rate (tumor weight): 67.30%
[1]; group 4: MK 0557 30 gm/kg i.p. 3 times for each week
  Mean Tumor Weight: 0.3048 ± 0.0696 g
[2]; [13]
  Mean Tumor Volume: 698.76±61.19 mm^3
  Mean Tumor Weight: 0.40 ± 0.09 g
  inhibition rate (tumor volume): 73.13%
  inhibition rate (tumor weight): 84.19%
[2]; [14]
  Mean Tumor Volume: 671.97±96.89 mm^3
  Mean Tumor Weight: 0.43 ± 0.17 g
  inhibition rate (tumor volume): 74.16%
  inhibition rate (tumor weight): 83.0%
[3]
  Mean Tumor Volume: 392.73±80.63 mm^3
  Mean Tumor Weight: 0.1582 ± 0.0345 g
[3]; versus vehicle
  inhibition rate (tumor volume): 38.85%
  inhibition rate (tumor weight): 38.59%
[4]; following very-low-calorie-diet induced weight loss
  reduction in weight regain: did not result in a clinically meaningful reduction in weight regain
[4]; overweight or obese adults, 1 mg/day, 5 mg/day or 25 mg/day
  weight loss: did not induce clinically meaningful weight loss
[5]
  tumor growth: inhibited tumor growth
[6]; 30 mg/kg intraperitoneally
  change in body weight: not significantly affected
[6]; [15]
  tumor growth: inhibited tumor growth
[7]; 30 mg/kg intraperitoneally
  effect on mouse body weights: no obvious effect
[7]; [15]
  tumor growth: Tumor growth was inhibited
[8]
  tumor growth: inhibited tumor growth
[9]
  tumor growth: inhibited tumor growth
[10]
  binding to mouse NPY6R: does not significantly bind
[11]; 30 mg/kg intraperitoneally
  effect on mouse body weights: no obvious effect
[11]; [15]
  tumor growth: Tumor growth was inhibited

Reference: patent publication US8765791B2, “Method of treating cancer using a neuropeptide Y 5R (NP Y5R) antagonist” (University Health Network, priority 2008, dated 2014)
